Patent US20240158348A1, “HERBICIDAL CYCLIC AMIDES N-SUBSTITUTED WITH A HALOALKYLSULFONYLANILIDE GROUP” (FMC Corporation, priority 2021, published 2024)

What was measured:
Type in all cases: in vivo
[1] = test system: ryegrass, Italian (Italian ryegrass, Lolium multiflorum); assay: Test C postemergence, Italian ryegrass; conditions: for Ryegrass, Italian plant response rating: visual injury, 0 to 100 scale (0 no effect, 100 complete control)
Outline: (§1)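 Ratings run from 0, meaning no effect, up to 100, meaning complete control, judged by eye against untreated plants. Treatment was a directed soil spray before emergence or a postemergence spray on 2–10 cm seedlings, with evaluation 10 or 12 days later.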

[2] = test system: wheat (Triticum aestivum); assay: Test C preemergence, wheat; conditions: 0 is no effect, 100 is complete control
rice (Oryza sativa) = assay: Test D flooded paddy test, rice; set-up: key: 0 = no effect, 100 = complete control; conditions: 250 g ai/ha, Flood; applied to paddy water at 2-leaf stage; visual rating after 13 days; scale 0 (no effect) to 100 (complete control)
Outline: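 2-leaf plants; flood 3 cm over soil; cpd into paddy water; depth maintained; greenhouse 13 d; visual rating vs controls, 0 = no effect, 100 = complete control; dash = no result.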

[3] = test system: blackgrass (Alopecurus myosuroides); assay: Test C postemergence, blackgrass; conditions: visual injury, 0 to 100 scale (0 no effect, 100 complete control)
Outline: as §1

kochia (Bassia scoparia) = assay: Test C postemergence, kochia; conditions: for Kochia plant response rating: visual injury, 0 to 100 scale (0 no effect, 100 complete control); for Plant response rating (0 to 100 scale), Kochia: 0 is no effect, 100 is complete control
Outline: as §1

[4] = test system: galium (catchweed bedstraw, Galium aparine); assay: Test C postemergence, galium; conditions: for Galium plant response rating: visual injury, 0 to 100 scale (0 no effect, 100 complete control); for Plant response rating (0 to 100 scale), Galium: 0 is no effect, 100 is complete control
[5] = test system: foxtail, giant (giant foxtail, Setaria faberi); assay: Test C postemergence, giant foxtail; conditions: for Foxtail, Giant plant response rating: visual injury, 0 to 100 scale (0 no effect, 100 complete control); for Plant response rating (0 to 100 scale), Foxtail, Giant: 0 is no effect, 100 is complete control
[6] = test system: ryegrass, Italian (Italian ryegrass, Lolium multiflorum); assay: Test C preemergence, Italian ryegrass; conditions: 0 is no effect, 100 is complete control
Outline: as §1

| Structure (SMILES) | Ryegrass, Italian plant response rating ([1]; 31 g ai/ha Postemergence) | Ryegrass, Italian plant response rating ([1]; 125 g ai/ha Postemergence) | Plant response rating (0 to 100 scale), Wheat ([2]; 31 g ai/ha Preemergence) | Plant response rating (0 to 100 scale), Wheat ([2]; 125 g ai/ha Preemergence) | Plant response rating, Rice (rice (Oryza sativa)) | Blackgrass plant response rating ([3]; 31 g ai/ha Postemergence) | Kochia plant response rating (kochia (Bassia scoparia); 31 g ai/ha Postemergence) | Plant response rating (0 to 100 scale), Kochia (kochia (Bassia scoparia); 125 g ai/ha Postemergence) | Galium plant response rating ([4]; 31 g ai/ha Postemergence) | Plant response rating (0 to 100 scale), Galium ([4]; 125 g ai/ha Postemergence) | Foxtail, Giant plant response rating ([5]; 31 g ai/ha Postemergence) | Plant response rating (0 to 100 scale), Foxtail, Giant ([5]; 125 g ai/ha Postemergence) | Plant response rating (0 to 100 scale), Ryegrass, Italian ([6]; 31 g ai/ha Preemergence) | Plant response rating (0 to 100 scale), Ryegrass, Italian ([6]; 125 g ai/ha Preemergence) | Blackgrass plant response rating ([3]; 125 g ai/ha Postemergence) | Kochia plant response rating (kochia (Bassia scoparia); 125 g ai/ha Postemergence) | Galium plant response rating ([4]; 125 g ai/ha Postemergence) | Foxtail, Giant plant response rating ([5]; 125 g ai/ha Postemergence) | Plant response rating (0 to 100 scale), Ryegrass, Italian ([1]; 125 g ai/ha Postemergence, 0 is no effect, 100 is complete control) |
| --- | --- | --- | --- | --- | --- | --- | --- | --- | --- | --- | --- | --- | --- | --- | --- | --- | --- | --- | --- |
| Cc1c(N2CCCC(OC3CC3)C2=O)cc(N(COC(=O)C(C)(C)C)S(=O)(=O)C(F)(F)F)c(C)c1F (stereo not drawn) [Compound 37] | 0 | 60 | 0 | 20 | 0 | 0 | 50 | 70 | 60 | 90 | 10 | 80 | 30 | 70 |  |  |  |  |  |
| Cc1c(N2CCC(OC3CCC3)C2=O)cc(N(COC(=O)C(C)(C)C)S(=O)(=O)C(F)(F)F)c(C)c1C (stereo not drawn) [Compound 51] | 20 | 50 | 10 | 60 | 10 | 10 | 30 |  | 60 |  | 0 |  | 40 | 100 | 20 | 70 | 90 | 40 |  |
| COC(=O)N(c1cc(N2CCC(OC3CC3)C2=O)c(C)cc1C)S(=O)(=O)C(F)(F)F (stereo not drawn) [Compound 16] | 0 |  | 0 | 0 | 0 | 0 | 20 | 10 | 50 | 50 | 0 | 0 | 0 | 0 |  |  |  |  | 0 |
| Cc1cc(C)c(N(COC(=O)C(C)(C)C)S(=O)(=O)C(F)(F)F)cc1N1CCC(OCC2CC2)C1=O (stereo not drawn) [Compound 53] | 0 | 70 | 60 | 90 | 25 | 20 | 20 |  |  |  | 30 |  | 60 | 100 | 60 | 50 |  | 90 |  |
| Cc1cc(C)c(N(COC(=O)C(C)(C)C)S(=O)(=O)C(F)(F)F)cc1N1CCC(OCC2CC2(F)F)C1=O (stereo not drawn) [Compound 54] | 60 | 70 | 0 | 80 | 0 | 30 | 30 |  |  |  | 30 |  | 0 | 90 | 90 | 50 |  | 70 |  |
